Assay [1] concerns the target T1, 6His-Tev-LRRK2 (1326-2527) (Homo sapiens, UniProt Q5S007).
T1 construct: A LRRK2 cDNA encoding residues 1326-2527 was received from Dundee University; made in house; host or cells: Spodoptera frugiperda (Sf9) insect cells, baculovirus
T1 sequence (Q5S007 1326-2527): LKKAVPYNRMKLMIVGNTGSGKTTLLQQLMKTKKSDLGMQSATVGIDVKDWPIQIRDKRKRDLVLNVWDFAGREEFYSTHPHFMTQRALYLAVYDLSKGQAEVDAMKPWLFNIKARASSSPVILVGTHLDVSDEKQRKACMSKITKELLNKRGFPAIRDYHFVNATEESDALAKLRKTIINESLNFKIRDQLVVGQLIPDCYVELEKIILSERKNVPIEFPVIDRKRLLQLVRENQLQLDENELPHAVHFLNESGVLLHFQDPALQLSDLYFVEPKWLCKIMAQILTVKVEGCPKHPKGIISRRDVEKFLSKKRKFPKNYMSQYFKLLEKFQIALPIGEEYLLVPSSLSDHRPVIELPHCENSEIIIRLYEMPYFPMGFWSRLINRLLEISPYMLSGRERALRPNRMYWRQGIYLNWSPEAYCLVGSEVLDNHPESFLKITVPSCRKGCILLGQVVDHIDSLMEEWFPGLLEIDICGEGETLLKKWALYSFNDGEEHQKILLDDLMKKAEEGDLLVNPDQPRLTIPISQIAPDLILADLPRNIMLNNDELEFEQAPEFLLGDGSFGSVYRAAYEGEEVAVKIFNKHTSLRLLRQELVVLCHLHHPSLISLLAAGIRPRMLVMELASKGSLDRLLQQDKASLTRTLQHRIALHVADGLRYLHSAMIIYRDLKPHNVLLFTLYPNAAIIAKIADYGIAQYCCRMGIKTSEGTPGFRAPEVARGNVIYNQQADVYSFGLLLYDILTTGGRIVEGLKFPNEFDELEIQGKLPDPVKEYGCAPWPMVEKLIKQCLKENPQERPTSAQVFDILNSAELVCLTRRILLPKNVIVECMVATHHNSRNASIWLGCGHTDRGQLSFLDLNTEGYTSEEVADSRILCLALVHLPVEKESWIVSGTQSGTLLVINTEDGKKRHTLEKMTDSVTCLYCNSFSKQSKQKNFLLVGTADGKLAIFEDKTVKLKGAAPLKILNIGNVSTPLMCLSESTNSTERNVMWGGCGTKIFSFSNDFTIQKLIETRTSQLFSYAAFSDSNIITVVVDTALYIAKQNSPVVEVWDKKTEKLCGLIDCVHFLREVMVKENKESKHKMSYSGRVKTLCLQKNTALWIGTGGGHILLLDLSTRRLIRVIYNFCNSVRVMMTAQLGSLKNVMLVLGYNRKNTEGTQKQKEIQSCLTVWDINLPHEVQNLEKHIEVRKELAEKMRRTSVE
Description: LRRK2 peptide substrate assay. In kind it is biochemical. Conditions: Biotin-LRRKtide peptide substrate, ATP at Km. The method, then:
Compounds of formula (I) may be tested for in vitro kinase activity in accordance with the following assays, using the non natural, in vitro, substrates moesin and the Longer Biotin-LRRKtide. Moesin and a shorter version of the peptide were identified as substrates in Jaleel et al, (2007, Biochem J, 405: 307-317).
LRRK2 Peptide Substrate Assay
(§1) a) 100 nl of a 1:4 serial dilution of test compound with a top final assay concentration of 30 μM is added to certain wells in a low volume 384 well black plate. 100 nl of DMSO is used in certain wells as controls.
b) 3 μl enzyme solution (80 nM purified recombinant 6His-Tev-LRRK2 (1326-2527) in assay buffer: 50 mM Hepes (pH 7.2), 10 mM MgCl2, 150 mM NaCl, 5% glycerol, 0.0025% triton X-100 and 1 mM DTT) is added to certain wells. […] Plates are then incubated for a further 1-2 hours at room temperature (incubation time varies depending upon rate and linearity of reaction with differing enzyme batches). d) 6 μl detection solution (50 nM Streptavidin SureLight® APC (PerkinElmer), 4 nM Eu-W1024 labelled anti-rabbit IgG antibody (PerkinElmer), 1:500 dilution (dilution determined on a batch to batch basis) of Phospho-Ezrin (Thr567)/Radixin (Thr564)/Moesin (Thr558) Polyclonal Antibody (New England Biolabs) and 60 mM EDTA in buffer: 40 mM Hepes (pH 7.2), 150 mM NaCl, 0.03% BSA) is added to each well. Plates are then incubated for a further 2 hours at room temperature before reading on a suitable plate reader (Excitation 330 nm, emission 620 nm (Eu) and 665 nm (APC)). Data is analysed using ActivityBase software (IDBS). LRRK2 AlphaScreen Protein Substrate Assay

Assay [2] has as its target T1, 6His-Tev-LRRK2 (1326-2527). Put plainly: LRRK2 AlphaScreen desensitised protein substrate assay. Type of assay: biochemical. As for the experimental part:
as §1
b) 3 μl enzyme solution (80 nM purified recombinant 6His-Tev-LRRK2 (1326-2527) in assay buffer: 50 mM Hepes (pH 7.2), 10 mM MgCl2, 150 mM NaCl, 5% glycerol, 0.0025% triton X-100 and 1 mM DTT) is added to certain wells.
Plates are then incubated for a further 1-2 hours at room temperature (incubation time varies depending upon rate and linearity of reaction with differing enzyme batches).
d) 6 μl detection solution (1:250 dilution of AlphaLisa Protein A Acceptor beads (PerkinElmer), 1:64 dilution of AlphaLisa Gluthathione Donor beads (PerkinElmer) and 1:600 dilution (dilution determined on a batch to batch basis) of Phospho-Ezrin (Thr567)/Radixin (Thr564)/Moesin (Thr558) Polyclonal Antibody (New England Biolabs) in a buffer: 50 mM Hepes (pH 7.5), 250 mM NaCl, 60 mM EDTA, 1% PEG and 0.01% Brij 35) is added to each well. Plates are then incubated for a further 2 hours at room temperature in the dark before reading on an EnVision™ plate reader with AlphaScreen HTS turbo option module and AlphaScreen settings. Data is analysed using ActivityBase software (IDBS).
LRRK2 AlphaScreen Desensitised Protein Substrate Assay
This is conducted as described for the LRRK2 alphascreen protein substrate assay, with the following differences: • 1. The concentration of ATP in the substrate solution was 2 mM. • 2. The plates were incubated for 20 minutes at room temperature following addition of the substrate solution. Pharmacological Data

Setting [3] is: read-out: pIC50 in the LRRK2 peptide substrate assay (converted).
[4] abbreviates: excess of ATP present (2 mM ATP), read-out: pIC50 in the LRRK2 alphascreen desensitised protein substrate assay (converted).

`COC(=O)NCc1ccc(OCc2ccccc2)c(C(=O)Nc2cccnc2)c1` [Example 86, Methyl ({4-[(phenylmethyl)oxy]-3-[(3-pyridinylamino)carbonyl]phenyl}methyl)carbamate]: the IC50 was at most 10 nM in assay [1] (setting [3]) and at most 20000 nM in assay [2] (setting [4]).
The like results for `CCOC(=O)CCc1ccc(OCc2ccccc2)c(C(=O)Nc2cccnc2)c1` [Example 87, Ethyl 3-{-4-[(phenylmethyl)oxy]-3-[(3-pyridinylamino)carbonyl]phenyl}propanoate] were, in that order, at most 10 nM and at most 20000 nM.
The like results for `O=C(O)CCc1ccc(OCc2ccccc2)c(C(=O)Nc2cccnc2)c1` [Example 88, 3-{4-[(phenylmethyl)oxy]-3-[(3-pyridinylamino)carbonyl]phenyl}propanoic acid] were, in that order, at most 100 nM and over 25100 nM.
Regarding `O=C(Nc1ccnnc1)c1cc(-c2ccncc2)ccc1OCc1ccc(F)cc1` [Example 89, 2-{[(4-Fluorophenyl)methyl]oxy}-N-4-pyridazinyl-5-(4-pyridinyl)benzamide], the IC50 in assay [1] (setting [3]) is at most 10 nM; in assay [2] (setting [4]), at most 20000 nM.
For the molecule `O=C(Nc1cccnc1)c1cc(-c2ccncc2)ccc1OCc1ccc(F)cc1` [Example 90, 2-{[(4-Fluorophenyl)methyl]oxy}-N-3-pyridinyl-5-(4-pyridinyl)benzamide], the IC50 in assay [1] (setting [3]) was at most 10 nM; in assay [2] (setting [4]) it was at most 20000 nM.
The matching figures for `O=C(Nc1ccnnc1)c1cc(-c2cn[nH]c2)ccc1OCc1ccc(F)cc1` [Example 92, 2-{[(4-Fluorophenyl)methyl]oxy}-5-(1H-pyrazol-4-yl)-N-4-pyridazinylbenzamide]: at most 10 nM and at most 20000 nM.
Turning to `Cn1cc(-c2ccc(OCc3ccc(F)cc3)c(C(=O)Nc3ccnnc3)c2)cn1` [Example 94, 2-{[(4-Fluorophenyl)methyl]oxy}-5-(1-methyl-1H-pyrazol-4-yl)-N-4-pyridazinylbenzamide], the IC50 in assay [1] (setting [3]) was at most 100 nM; in assay [1] (mean pIC50, read-out: LRRK2 peptide substrate assay (pIC50) (converted)), 12.6 nM; in assay [2] (setting [4]), at most 20000 nM; in assay [2] (mean pIC50, GST-PS-Moesin (400-577) substrate, 2 mM ATP (excess of ATP present), read-out: LRRK2 alphascreen desensitised protein substrate assay (pIC50) (converted)) it was 100 nM.
Consider `Cn1nccc1-c1ccc(OCc2ccc(F)cc2)c(C(=O)Nc2cccnc2)c1` [Example 95, 2-{[(4-Fluorophenyl)methyl]oxy}-5-(1-methyl-1H-pyrazol-5-yl)-N-3-pyridinylbenzamide], for which the IC50 in assay [1] (setting [3]) is at most 100 nM; in assay [2] (setting [4]), at most 20000 nM.
On to `O=C(Nc1cncc(F)c1)c1cc(Br)ccc1OCc1ccccc1` [Example 98, 5-Bromo-N-(5-fluoro-3-pyridinyl)-2-[(phenylmethyl)oxy]benzamide], for which the results for the IC50 in assay [1] (setting [3]) and in assay [2] (setting [4]) were at most 100 nM and over 25100 nM, respectively.
The like results for `O=C(Nc1cccnc1)c1cc(-c2cn[nH]c2)ccc1OCc1ccccc1` [Example 99, 2-[(Phenylmethyl)oxy]-5-(1H-pyrazol-4-yl)-N-3-pyridinylbenzamide] were, in that order, at most 10 nM and at most 20000 nM.
The matching figures for `O=C(Nc1cccnc1)c1cc(-c2cccnc2)ccc1OCc1ccccc1` [Example 101, 2-[(Phenylmethyl)oxy]-N,5-di-3-pyridinylbenzamide]: at most 10 nM and at most 20000 nM.
The matching figures for `O=C(Nc1cncc(F)c1)c1cc(-c2ccncc2)ccc1OCc1ccccc1` [Example 102, N-(5-Fluoro-3-pyridinyl)-2-[(phenylmethyl)oxy]-5-(4-pyridinyl)benzamide]: at most 100 nM and over 25100 nM.
Take `C[C@@H]1CN(c2ccc(OCc3ccccc3)c(C(=O)Nc3cccnc3)c2)C[C@H](C)N1C` [Example 103, 2-[(Phenylmethyl)oxy]-N-3-pyridinyl-5-[(3R,5S)-3,4,5-trimethyl-1-piperazinyl]benzamide]: the IC50 in assay [1] (setting [3]) is at most 10 nM; in assay [2] (setting [4]), at most 20000 nM.
On to `O=C(Nc1cccnc1)c1cc(-c2ccnc(F)c2)ccc1OCc1ccccc1` [Example 104, 5-(2-Fluoro-4-pyridinyl)-2-[(phenylmethyl)oxy]-N-3-pyridinylbenzamide], for which the figures for the IC50 in assay [1] (setting [3]) and in assay [2] (setting [4]) were at most 10 nM and at most 20000 nM, respectively.
The matching figures for `Cn1cc(-c2ccc(OCc3ccc(F)c(F)c3)c(C(=O)Nc3ccnnc3)c2)cn1` [Example 105, 2-{[(3,4-Difluorophenyl)methyl]oxy}-5-(1-methyl-1H-pyrazol-4-yl)-N-4-pyridazinylbenzamide]: at most 100 nM and at most 20000 nM.
The like results for `O=C(Nc1ccnnc1)c1cc(-c2ccncc2)ccc1OCc1ccc(F)c(F)c1` [Example 106, 2-([(3,4-Difluorophenyl)methyl]oxy)-N-4-pyridazinyl-5-(4-pyridinyl)benzamide] were, in that order, at most 100 nM and at most 20000 nM.
The like results for `O=C(Nc1cccnc1)c1cc(-c2ccn[nH]2)ccc1OCc1ccc(F)c(F)c1` [Example 107, 2-{[(3,4-Difluorophenyl)methyl]oxy}-5-(1H-pyrazol-5-yl)-N-3-pyridinylbenzamide] were, in that order, at most 10 nM and at most 20000 nM.
Turning to `O=C(Nc1ccnnc1)c1cc(-c2cn[nH]c2)ccc1OCc1ccc(F)c(F)c1` [Example 108, 2-{[(3,4-Difluorophenyl)methyl]oxy}-5-(1H-pyrazol-4-yl)-N-4-pyridazinylbenzamide], the values for the IC50 in assay [1] (setting [3]) and in assay [2] (setting [4]) were at most 100 nM and at most 20000 nM, respectively.
In the case of `O=C(Nc1cccnc1)c1cc(-c2ccncc2)ccc1OCc1ccc(F)c(F)c1` [Example 109, 2-{[(3,4-Difluorophenyl)methyl]oxy}-N-3-pyridinyl-5-(4-pyridinyl)benzamide], the IC50 in assay [1] (setting [3]) was at most 100 nM; in assay [2] (setting [4]), at most 20000 nM.
